From a melting point compilation (Tetko et al.; mined from patent text by program, amines drawn as free bases though some values may be those of a salt) come the findings set out here.

In general, melting point refers to the temperature of the solid-liquid transition.

Take `Cc1nc2cccnc2n(-c2ccc(F)cc2)c1=O`: the melting point was 270 to 271 °C. With `O=C1c2ccc([N+](=O)[O-])cc2C2(c3ccccc3)NCCN12` (centres undefined), the melting point worked out at 203 °C. In turn, `Clc1ccc2nc(Cl)c3nnc(-c4ccccc4)n3c2c1` showed a melting point of 305 to 307 °C. With `O=C(Nc1ccc(F)nc1)OCC(Cl)(Cl)Cl` the figure was 114 to 115 °C; with `CO[C@@H](Cc1ccc(OCCc2nc(-c3cc(C)cc(C)c3)oc2C)c2ccccc12)C(=O)O`, 197 to 198 °C. Next, `Cc1noc(CCNC(c2ccccc2)(c2ccccc2)c2ccccc2)n1`: 100 to 101 °C.

The molecule `CCc1cccc(C=CC(=O)CCCc2ccccc2)c1NC(=O)CC1c2ccccc2Oc2ccccc21` showed a melting point of 168 to 170 °C. With `CCC(=O)C(C#N)Cc1cc(Cl)cc(Cl)c1` (centres undefined) the figure was 59 to 60 °C; with `CN1CCN(Cc2ccc(-c3cccc(-c4cncc(C#N)c4Nc4ccc5[nH]ccc5c4)c3)s2)CC1`, 120 to 123 °C; with `CC(Oc1cc(C(F)(F)F)cc(C(F)(F)F)c1)C(=O)O` (centres undefined), 51 to 53 °C. With `Clc1cc(-c2ccccn2)ccn1` the figure was 80 to 81 °C.

The molecule `CC1CCC(=O)N1CC(=O)NCCN1C(C)CCCC1C` (centres undefined) came in with a melting point of 115 to 116 °C. Next, `COc1ccc(CS[C@H]2C[C@@H](C(=O)N3CCN(C)CC3)N(C(=O)OCc3ccc([N+](=O)[O-])cc3)C2)cc1`: 140 to 141 °C; `Oc1cc(O)nc(-c2ccc(Cl)cc2)n1`: 333 °C.

Regarding `CCCCC=Cc1ccc(Cc2c(C)[nH]c3ccc(C(=O)OC)cc23)c(Cl)c1`, the melting point lay within 141 to 146 °C. With `CC(=O)N1CCC2(CC1)Nc1cc(C)ccc1-n1cccc12` the figure was 212 to 213 °C; with `C=Cc1c(C(=O)O)cccc1[N+](=O)[O-]`, 166 to 167 °C.

`Cc1cc(=O)n(Cc2ccccc2)c2ccccc12` showed a melting point of 109 to 111 °C.

For the molecule `CNc1nc(-c2ccncc2)n[nH]1`, the melting point lay in the range of 228 to 230 °C.

On to `N=C(N)NC(=O)Cn1c(Cc2cccs2)ccc1-c1ccccc1`, for which the melting point lay in the range of 99 to 120 °C. With `O=C1NCCNC1c1ccc(F)cc1` (racemic), the melting point stood at 115 °C. Next, `Nc1ncnc2c1ncn2CC(/C=C/P(=O)(O)O)CO` (centres undefined): over 300 °C; `Cc1cccc(C)c1NCCNCC(O)COc1cccc2[nH]c3ccccc3c12` (centres undefined): 162 to 163 °C.

As to `CC(=O)c1ccc(NCCCN2CCC(c3noc4cc(F)ccc34)CC2)c(O)c1`, the melting point was in the range of 150 to 152 °C. Next, `CCS(=O)c1ccc(Oc2ccc(Cl)c(Cl)c2)nc1C#N` (centres undefined): 138 to 144 °C. Next, `O=c1cc(-c2ccccc2)oc2cc(OCC(O)CNCCCCc3cccnc3)ccc12` (centres undefined): 116 to 119 °C; `O=C1CC(=O)CC(c2cc([N+](=O)[O-])ccc2F)C1`: 171 to 173 °C. With `Cc1c(C(=O)Nc2ccc(N3CCC(N4CCOCC4)CC3)c(C#N)c2)cnn1-c1ccccc1` the figure was 223 °C; with `CC(CO)Oc1ccc(CNc2ccc(Cl)cc2)cc1` (centres undefined), 81 to 83 °C. With `COc1cccc(S(=O)(=O)c2cccc(F)c2C#N)c1`, the melting point lay in the range of 113 to 117 °C.

In turn, `O=C(c1cccnc1)N1CCC(c2ccccc2F)=N1` showed a melting point of 89 to 91 °C. `NC(=O)c1cn2c(nc1=O)CCC2` registered a melting point of 277 to 278 °C. For `COC(=O)c1cnc(C(=O)O)nc1`, the melting point was in the range of 152 to 154 °C. With `O=C1OC(COc2ccccc2)CN1CCO` (centres undefined) the figure was 89 to 91 °C. With `CSc1cc(CCC(=O)OC(C)(C)C)nc(-c2nc(=O)c3ccccc3s2)c1` the figure was 155 to 156 °C; with `Cc1nc(-c2ccc(OCc3cccc(Cl)c3)cc2)no1`, 96 to 98 °C; with `COc1cc2sc(-c3ccccn3)nc(=O)c2cc1OC`, 236 to 238 °C. Next, `Cc1cccc(C(=O)Nc2nc(=O)c3ccccc3[nH]2)c1`: 211 to 213 °C. In turn, `CC(=O)c1cc(N2CCOCC2)ccc1NC(=O)c1cccc2c1OCO2` had a melting point of 150 to 152 °C.

For `COCc1nc(N)nc(N)c1-c1c(Cl)cccc1Cl`, the melting point lay in the range of 204 to 207 °C.

Molecule `CC1(C)CCC(C)(C)c2cc(C#Cc3ccc(S(C)(=O)=O)cc3)ccc21` came in with a melting point of 153 to 155 °C. Next, `COC(=O)c1cc2c(nc1C)C(COC(=O)Oc1ccc([N+](=O)[O-])cc1)CCCC2` (centres undefined): 116 to 117 °C. Next, `CCCCNC(=O)C(Cc1ccccc1)NC(=O)c1cc2cc(Cl)ccc2[nH]1` (centres undefined): 192 to 193 °C; `N#Cc1cnc2ccc(N)cc2c1Nc1ccc(F)c(Br)c1`: 210 to 212 °C. In the case of `CC(C)c1nc(CCOC2=CCCc3ccccc32)n(C)c1Sc1cc(Cl)cc(Cl)c1`, the melting point was in the range of 99 to 102 °C. The molecule `COC(Cn1cncn1)(OC)c1ccc(Cl)cc1Cl` gave a melting point of 87.7 °C. For `COCCO[C@@H]1c2ccn3c(Cl)c(C)nc3c2N[C@H](c2ccccc2)[C@H]1O`, the melting point lay in the range of 123 to 126 °C. Next, `Cc1oc(-c2ccccc2)nc1COc1nn(Cc2ccc(Oc3ccccc3)cc2)cc1C(N)=O`: 158 to 159 °C. Next, `CCOC(=O)CNC(=O)N(O)C1CC(c2ccc(F)cc2)C1` (centres undefined): 130 to 132 °C. In turn, `COc1ccc2c(c1)CCC1CCN(C)C(=O)C(CC(C)=O)=C21` (centres undefined) had a melting point of 190 to 192 °C. The molecule `CON(C(=O)c1ccc(C(=O)C(C)(C)C)cc1)C(=O)c1ccc(C(=O)C(C)(C)C)cc1` displayed a melting point of 103 to 105 °C. Next, `C=C1CC2(CC)C(=O)CC(OC(C)=O)C2C2CCC3=CC(=O)CCC3C12` (centres undefined): 176 °C; `CN(C)C(=O)/C=C/CSc1nc(N)cc(Cl)n1`: 173 to 176 °C; `COc1ccc(CCN2CCC(C(O)c3nc4ccccc4s3)CC2)cc1` (centres undefined): 127 to 129 °C. With `O=S(=O)(c1[nH]c(-c2ccc(Cl)cc2)c(S(=O)(=O)C(F)(F)F)c1Br)C(F)(F)F` the figure was 115 to 135 °C; with `CC(C)(C)C(=O)Nc1cc(Cl)ccc1Cl`, 74 to 76 °C; with `COc1cc2c(cc1C)CCN(C)C2C1(C2C=CCCC2)CCC1` (centres undefined), 124 to 125 °C. With `CCOCCOCCn1c(C=O)cc2c3c(c(-c4ccccc4Cl)cc21)C(=O)NC3=O` the figure was 162 to 165 °C; with `COc1ccc(-c2csc(NC(=O)c3cc4ccccc4cn3)n2)cc1OC`, 228 to 230 °C; with `CCNC(=O)N(C)C1c2ccccc2Oc2ccccc21`, 139 to 141 °C. Take `CCC1c2cc3c(cc2C(C=Cc2ccc(NC(C)=O)cc2)=NN(C(C)=O)C1C)OCO3` (centres undefined): the melting point was 137 to 140 °C. Next, `COCCOc1ccc2sc(C(=O)Nc3ccccc3N)cc2c1`: 162 to 165 °C; `CCN1C(=O)C(C(=O)Nc2cccc(C(=O)Nc3ccccc3)c2)c2cc(C(=O)c3ccccc3)ccc21` (centres undefined): 129 to 135 °C; `COc1ccc(-c2c(Cl)c(CNC(=O)Cn3cncn3)nc3sc4c(c23)CCN(Cc2ccccc2)C4)cc1OC`: 101 to 102 °C. Next, `NC(C(=O)O)c1ccc(C(=O)O)cc1N1CCCC1` (centres undefined): 187 to 190 °C; `COC(=O)C1C(=O)N(Cc2ccc(Br)cc2F)C(=O)c2ccccc21` (centres undefined): 149 to 150 °C. Next, `NCC(=O)Nc1ccc([N+](=O)[O-])cc1C(=NO)c1ccccc1F`: 198 °C; `CCCCCc1c(/C=C/C(=O)Oc2ccc([N+](=O)[O-])cc2)oc2cc(OC)ccc12`: 120 to 122 °C; `COc1cc(NCCCCCC(=O)NCC(C)C)c2nccc(C)c2c1`: 111 to 112 °C. Molecule `Cc1c(C(=O)Nc2ccc(Oc3ccccc3)c(C#N)c2)cnn1-c1ccc(F)cc1` yielded a melting point of 182 to 183 °C. Regarding `O=C1N(N2CCOCC2)c2ccccc2C1(Cc1ccnc(F)c1)c1ccccc1` (centres undefined), the melting point lay in the range of 170 to 172 °C.

Consider `CCCCCCCCCCCCCCCCCC(=O)Oc1cc(C)c(O)c(C(C)(C)C)c1`, for which the melting point lay within 64 to 65.5 °C. Next, `Cc1cc(Oc2ccc(C(=O)C=CC(=O)O)cc2)ccc1Cl`: 135 to 136 °C. Next, `COC(=O)NCc1ccc(Br)cc1F`: 66 to 67.5 °C; `CC1=NCCSC1=NOC(=O)N(C)C`: 64 to 65 °C. Next, `O=[N+]([O-])c1ccc2[nH]cc(C3=CCN(Cc4ccccc4)CC3)c2c1`: 168 to 170 °C. In turn, `CC(C)(C)OCC(NC(=O)c1ccc2c(Cl)cnc(Cl)c2c1)C(=O)OC(C)(C)C` (racemic) came in with a melting point of 116 to 117 °C.

The molecule `C[C@]1(CN2CCN(C(=O)N3CC=C(c4ccc(Cl)cc4)CC3)CC2)Cn2cc([N+](=O)[O-])nc2O1` yielded a melting point of 161 to 162 °C. With `CCOC(=O)c1c(-c2ccccc2Cl)c2cc(C(C)C)ccc2[nH]c1=O` the figure was 173 to 174 °C; with `CC(C)Cc1nccc2c(CC(=O)O)cccc12`, 152 °C. With `Fc1cccc(F)c1-c1nc2ccccc2n1Cc1ccccc1` the figure was 124 °C; with `CCN(CC)CCN=C1CC(c2ccc(Cl)c(Cl)c2)Cc2c1c(=O)c1cc(Cl)ccc1n2O` (centres undefined), 212 to 213 °C. With `O=C(O)CCOc1cccc(CNC(=O)C2Cc3ccccc3N2S(=O)(=O)c2ccc(-c3cccc(C(F)(F)F)c3)cc2)c1` (centres undefined) the figure was 70 °C. In turn, `Oc1ccccc1CNC1CCN(Cc2ccccc2)CC1` displayed a melting point of 92.5 to 93 °C. Take `Cc1c(C)c2c(c(C)c1O)CCC(C)(CC(=O)N(C)C)O2` (centres undefined): the melting point came to 142 °C. Next, `O=C1CCC(N2Cc3c(OCc4cc(CN5CCOCC5)no4)cccc3C2=O)C(=O)N1` (centres undefined): 228 to 230 °C; `COC=C(C(=O)OC)N(C)c1cccc(-c2ccccc2)n1`: 89 to 90 °C; `Nc1nccc(Oc2ccc3c(C(=O)Nc4cccc(C(F)(F)F)c4)cnn3c2)n1`: 102 to 104 °C.

The molecule `Clc1ccc(/C=C/c2ccc[nH]2)cc1` gave a melting point of 172 °C.
